Results published in ChEMBL document CHEMBL5465560, “Selectivity Literature for EUbOPEN Chemogenomic Library” (2024).
One block for each compound: values may come before it.

Experiments:
[1] = tested on: Proto-oncogene tyrosine-protein kinase receptor Ret (Homo sapiens), P07949 [M918T]; settings: at 10 µM
D(2) dopamine receptor = D(2) dopamine receptor (Homo sapiens, UniProt P14416); assay: Selectivity interaction (Eurofins CEREP Diversity Profile (receptors and ion channels)) EUB0000279b DRD2; settings: at 10 µM
Chain of D(2) dopamine receptor (P14416 whole entry): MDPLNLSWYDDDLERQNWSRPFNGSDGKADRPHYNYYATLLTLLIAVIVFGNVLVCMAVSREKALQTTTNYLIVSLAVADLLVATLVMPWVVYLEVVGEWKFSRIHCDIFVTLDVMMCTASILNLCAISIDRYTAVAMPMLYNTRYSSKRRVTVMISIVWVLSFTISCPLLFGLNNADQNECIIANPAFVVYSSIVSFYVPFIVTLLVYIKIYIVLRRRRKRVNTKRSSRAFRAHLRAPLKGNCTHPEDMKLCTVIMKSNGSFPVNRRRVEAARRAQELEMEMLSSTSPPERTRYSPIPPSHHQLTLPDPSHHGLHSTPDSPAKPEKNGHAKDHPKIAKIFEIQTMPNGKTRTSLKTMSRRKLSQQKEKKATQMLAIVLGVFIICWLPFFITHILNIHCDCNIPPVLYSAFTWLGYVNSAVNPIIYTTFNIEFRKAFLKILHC

[2] = target: Phosphatidylinositol 4-phosphate 5-kinase type-1 gamma (Homo sapiens) (UniProt O60331); assay: Selectivity interaction (Ambit KINOMEscan and KiNATiv profiling in Jurkat cells) EUB0000090b PIP5K1C; assay type: cell-based; settings: at 1 µM
Chain of Phosphatidylinositol 4-phosphate 5-kinase type-1 gamma (Homo sapiens) (O60331 whole entry): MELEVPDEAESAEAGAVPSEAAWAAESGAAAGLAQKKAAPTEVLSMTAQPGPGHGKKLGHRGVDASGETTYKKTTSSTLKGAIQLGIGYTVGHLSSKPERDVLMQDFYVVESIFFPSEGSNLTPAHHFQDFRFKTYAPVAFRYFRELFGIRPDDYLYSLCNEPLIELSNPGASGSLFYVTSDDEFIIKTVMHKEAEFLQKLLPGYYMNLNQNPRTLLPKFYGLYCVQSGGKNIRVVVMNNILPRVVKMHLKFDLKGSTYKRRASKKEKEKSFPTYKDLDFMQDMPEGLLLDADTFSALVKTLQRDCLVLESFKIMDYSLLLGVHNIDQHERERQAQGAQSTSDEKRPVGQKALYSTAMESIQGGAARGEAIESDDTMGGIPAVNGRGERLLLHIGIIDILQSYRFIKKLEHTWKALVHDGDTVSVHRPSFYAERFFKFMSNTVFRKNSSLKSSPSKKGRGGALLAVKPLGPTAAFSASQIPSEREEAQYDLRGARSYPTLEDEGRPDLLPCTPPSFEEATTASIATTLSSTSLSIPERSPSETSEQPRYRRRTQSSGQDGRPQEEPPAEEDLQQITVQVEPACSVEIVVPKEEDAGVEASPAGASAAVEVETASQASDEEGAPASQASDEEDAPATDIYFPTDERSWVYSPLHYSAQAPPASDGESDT

[3] = target: T1, Serine/threonine-protein kinase ICK (Homo sapiens) (UniProt Q9UPZ9); assay: Selectivity interaction (KinomeScan (DiscoverX)) EUB0001079a ICK; settings: at 1 µM
T1 sequence (whole entry): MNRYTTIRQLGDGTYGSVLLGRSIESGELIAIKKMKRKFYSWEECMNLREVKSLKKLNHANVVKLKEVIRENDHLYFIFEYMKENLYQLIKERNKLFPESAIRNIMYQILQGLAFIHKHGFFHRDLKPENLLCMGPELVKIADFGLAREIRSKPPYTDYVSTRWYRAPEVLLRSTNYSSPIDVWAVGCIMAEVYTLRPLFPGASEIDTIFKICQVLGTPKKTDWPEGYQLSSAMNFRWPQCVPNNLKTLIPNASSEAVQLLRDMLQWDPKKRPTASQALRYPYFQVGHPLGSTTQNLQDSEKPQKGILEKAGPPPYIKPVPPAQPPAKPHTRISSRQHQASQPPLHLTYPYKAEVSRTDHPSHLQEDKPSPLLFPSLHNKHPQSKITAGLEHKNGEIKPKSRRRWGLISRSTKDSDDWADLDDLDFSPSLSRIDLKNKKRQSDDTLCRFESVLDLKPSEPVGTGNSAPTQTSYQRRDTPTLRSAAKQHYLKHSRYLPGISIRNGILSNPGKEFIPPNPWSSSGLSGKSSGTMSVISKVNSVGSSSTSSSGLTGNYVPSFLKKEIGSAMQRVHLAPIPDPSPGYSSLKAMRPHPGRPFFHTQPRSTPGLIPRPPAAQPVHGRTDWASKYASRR

[4] = target: Serine/threonine-protein kinase 24 (Homo sapiens) (UniProt Q9Y6E0); assay: Selectivity interaction (KinomeScan (DiscoverX)) EUB0001079a STK24; settings: at 1 µM
[5] = target: Transient receptor potential cation channel subfamily M member 6 (Homo sapiens) (UniProt Q9BX84); assay: Selectivity interaction (KinomeScan (DiscoverX)) EUB0000607a TRPM6; settings: at 10 µM
Chain of Transient receptor potential cation channel subfamily M member 6 (Homo sapiens) (Q9BX84 whole entry): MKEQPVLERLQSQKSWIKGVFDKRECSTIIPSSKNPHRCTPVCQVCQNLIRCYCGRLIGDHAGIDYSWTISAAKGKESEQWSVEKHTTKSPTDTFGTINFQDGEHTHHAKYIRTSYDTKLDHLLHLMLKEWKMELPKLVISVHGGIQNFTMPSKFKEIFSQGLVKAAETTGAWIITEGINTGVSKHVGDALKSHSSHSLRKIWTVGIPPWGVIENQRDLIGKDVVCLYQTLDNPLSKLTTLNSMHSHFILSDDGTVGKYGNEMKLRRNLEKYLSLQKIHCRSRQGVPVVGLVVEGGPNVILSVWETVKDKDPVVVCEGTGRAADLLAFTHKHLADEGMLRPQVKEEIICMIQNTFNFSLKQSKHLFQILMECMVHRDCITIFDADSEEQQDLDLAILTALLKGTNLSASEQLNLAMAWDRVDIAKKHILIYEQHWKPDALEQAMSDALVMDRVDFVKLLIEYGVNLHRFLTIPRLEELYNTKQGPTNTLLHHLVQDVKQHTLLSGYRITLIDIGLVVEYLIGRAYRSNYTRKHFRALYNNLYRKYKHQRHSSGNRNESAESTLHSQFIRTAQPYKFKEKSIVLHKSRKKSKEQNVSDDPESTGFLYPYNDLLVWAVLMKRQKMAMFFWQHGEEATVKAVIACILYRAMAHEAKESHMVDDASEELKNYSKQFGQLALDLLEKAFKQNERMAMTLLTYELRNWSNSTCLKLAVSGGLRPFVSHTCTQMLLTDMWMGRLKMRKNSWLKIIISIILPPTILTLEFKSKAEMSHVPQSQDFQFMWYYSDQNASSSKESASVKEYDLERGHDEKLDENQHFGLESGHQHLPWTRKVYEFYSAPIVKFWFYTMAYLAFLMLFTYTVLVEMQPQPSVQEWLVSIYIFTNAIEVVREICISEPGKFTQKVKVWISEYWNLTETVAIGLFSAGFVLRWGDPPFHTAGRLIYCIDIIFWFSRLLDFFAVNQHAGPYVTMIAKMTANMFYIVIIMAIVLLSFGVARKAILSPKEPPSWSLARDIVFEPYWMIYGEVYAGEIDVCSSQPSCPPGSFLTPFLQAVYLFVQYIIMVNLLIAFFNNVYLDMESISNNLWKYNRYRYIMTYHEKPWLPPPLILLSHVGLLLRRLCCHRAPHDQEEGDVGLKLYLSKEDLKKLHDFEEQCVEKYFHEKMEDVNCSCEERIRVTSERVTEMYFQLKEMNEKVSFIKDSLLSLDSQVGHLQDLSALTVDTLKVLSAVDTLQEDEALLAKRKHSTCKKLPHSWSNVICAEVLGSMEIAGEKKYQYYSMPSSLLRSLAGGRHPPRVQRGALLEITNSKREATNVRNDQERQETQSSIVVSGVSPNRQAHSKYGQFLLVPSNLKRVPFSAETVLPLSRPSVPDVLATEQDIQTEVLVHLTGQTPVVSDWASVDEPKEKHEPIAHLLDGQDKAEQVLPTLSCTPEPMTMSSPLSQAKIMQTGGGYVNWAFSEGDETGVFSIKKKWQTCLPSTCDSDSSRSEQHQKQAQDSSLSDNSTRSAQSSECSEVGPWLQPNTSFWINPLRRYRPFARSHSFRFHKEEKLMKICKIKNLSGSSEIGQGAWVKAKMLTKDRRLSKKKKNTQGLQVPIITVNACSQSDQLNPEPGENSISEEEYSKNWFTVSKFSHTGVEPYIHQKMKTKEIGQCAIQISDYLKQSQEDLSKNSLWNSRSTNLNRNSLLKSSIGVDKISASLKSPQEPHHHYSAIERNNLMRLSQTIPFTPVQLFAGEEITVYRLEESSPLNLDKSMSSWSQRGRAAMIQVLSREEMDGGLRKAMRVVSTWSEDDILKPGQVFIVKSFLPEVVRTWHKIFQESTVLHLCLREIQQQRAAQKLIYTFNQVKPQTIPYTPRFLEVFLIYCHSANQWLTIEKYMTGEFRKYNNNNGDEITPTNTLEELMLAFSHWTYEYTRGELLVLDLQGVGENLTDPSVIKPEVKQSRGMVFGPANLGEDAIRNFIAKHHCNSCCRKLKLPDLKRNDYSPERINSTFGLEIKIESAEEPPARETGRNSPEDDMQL

[6] = target: Serine/threonine-protein kinase Nek7 (Homo sapiens) (UniProt Q8TDX7); assay: Selectivity interaction (ActivX KiNativ screen (ex vivo kinase selectivity in human PBMCs)) EUB0001619a NEK7; assay type: cell-based; settings: PBMC, at 1 µM
Chain of Serine/threonine-protein kinase Nek7 (Homo sapiens) (Q8TDX7 whole entry, looked up): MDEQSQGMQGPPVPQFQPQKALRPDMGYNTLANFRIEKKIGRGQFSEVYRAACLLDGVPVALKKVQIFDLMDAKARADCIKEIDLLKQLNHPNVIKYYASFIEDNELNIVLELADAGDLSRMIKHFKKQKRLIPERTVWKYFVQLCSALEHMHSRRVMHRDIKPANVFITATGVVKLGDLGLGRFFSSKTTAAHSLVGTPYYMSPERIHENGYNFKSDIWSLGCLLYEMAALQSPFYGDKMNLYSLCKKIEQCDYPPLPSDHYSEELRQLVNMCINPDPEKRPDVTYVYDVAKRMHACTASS

[7] = target: T2, Aurora kinase A (Homo sapiens) (UniProt O14965); assay: Selectivity interaction (KinomeScan (DiscoverX)) EUB0000045b STK6
T2 sequence (whole entry): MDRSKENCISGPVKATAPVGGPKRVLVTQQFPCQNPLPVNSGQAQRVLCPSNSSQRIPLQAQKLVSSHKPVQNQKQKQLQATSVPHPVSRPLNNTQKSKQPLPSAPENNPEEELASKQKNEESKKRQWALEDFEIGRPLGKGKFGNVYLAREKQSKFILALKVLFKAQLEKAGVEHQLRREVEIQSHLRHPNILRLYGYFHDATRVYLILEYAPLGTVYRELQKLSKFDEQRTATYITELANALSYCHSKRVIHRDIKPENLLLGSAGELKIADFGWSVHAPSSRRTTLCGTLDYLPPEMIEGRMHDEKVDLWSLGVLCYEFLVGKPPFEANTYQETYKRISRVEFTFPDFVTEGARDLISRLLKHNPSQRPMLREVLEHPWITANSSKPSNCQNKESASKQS

[8] = target: Phosphorylase b kinase gamma catalytic chain, skeletal muscle/heart isoform (Homo sapiens) (UniProt Q16816); assay: Selectivity interaction (KinomeScan (DiscoverX)) EUB0000045b PHKG1
Chain of Phosphorylase b kinase gamma catalytic chain, skeletal muscle/heart isoform (Homo sapiens) (Q16816 whole entry, looked up, canonical isoform): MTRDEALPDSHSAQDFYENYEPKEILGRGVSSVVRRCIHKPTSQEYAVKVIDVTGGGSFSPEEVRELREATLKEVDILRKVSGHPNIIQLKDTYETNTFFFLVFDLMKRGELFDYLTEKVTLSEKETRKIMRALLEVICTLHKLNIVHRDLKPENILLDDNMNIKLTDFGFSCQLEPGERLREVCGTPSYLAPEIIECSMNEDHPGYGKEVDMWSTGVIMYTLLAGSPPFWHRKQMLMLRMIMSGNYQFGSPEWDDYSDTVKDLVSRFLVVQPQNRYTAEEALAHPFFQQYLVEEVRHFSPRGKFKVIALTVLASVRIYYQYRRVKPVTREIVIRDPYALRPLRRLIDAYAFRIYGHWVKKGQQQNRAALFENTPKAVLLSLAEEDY

SRSF protein kinase 1 = SRSF protein kinase 1 (Homo sapiens, UniProt Q96SB4); assay: Selectivity interaction (KinomeScan (DiscoverX)) EUB0000045b SRPK1
Chain of SRSF protein kinase 1 (Q96SB4 whole entry, canonical isoform): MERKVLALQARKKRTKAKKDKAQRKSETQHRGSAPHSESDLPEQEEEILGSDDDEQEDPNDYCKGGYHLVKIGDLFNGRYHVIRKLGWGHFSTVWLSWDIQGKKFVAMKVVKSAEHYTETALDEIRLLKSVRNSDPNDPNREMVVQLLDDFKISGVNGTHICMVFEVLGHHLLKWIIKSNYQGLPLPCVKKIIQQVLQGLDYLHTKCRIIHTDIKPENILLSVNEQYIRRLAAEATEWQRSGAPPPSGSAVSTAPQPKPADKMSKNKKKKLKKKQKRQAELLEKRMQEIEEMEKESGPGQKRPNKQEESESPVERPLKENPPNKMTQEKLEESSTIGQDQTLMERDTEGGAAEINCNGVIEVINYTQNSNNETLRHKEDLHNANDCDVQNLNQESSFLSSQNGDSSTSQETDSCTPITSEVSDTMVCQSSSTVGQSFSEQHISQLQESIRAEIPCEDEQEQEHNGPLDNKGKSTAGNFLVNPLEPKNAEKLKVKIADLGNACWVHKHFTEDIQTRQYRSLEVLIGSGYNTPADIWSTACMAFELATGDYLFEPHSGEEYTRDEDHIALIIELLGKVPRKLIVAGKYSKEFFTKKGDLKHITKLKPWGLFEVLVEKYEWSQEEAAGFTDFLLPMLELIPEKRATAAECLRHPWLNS

[9] = target: Casein kinase I isoform epsilon (Homo sapiens, UniProt P49674); settings: at 10 µM
[10] = target: Proto-oncogene tyrosine-protein kinase Src (Homo sapiens, UniProt P12931); settings: at 10 µM
Chain of Proto-oncogene tyrosine-protein kinase Src (P12931 2-536 limits assumed): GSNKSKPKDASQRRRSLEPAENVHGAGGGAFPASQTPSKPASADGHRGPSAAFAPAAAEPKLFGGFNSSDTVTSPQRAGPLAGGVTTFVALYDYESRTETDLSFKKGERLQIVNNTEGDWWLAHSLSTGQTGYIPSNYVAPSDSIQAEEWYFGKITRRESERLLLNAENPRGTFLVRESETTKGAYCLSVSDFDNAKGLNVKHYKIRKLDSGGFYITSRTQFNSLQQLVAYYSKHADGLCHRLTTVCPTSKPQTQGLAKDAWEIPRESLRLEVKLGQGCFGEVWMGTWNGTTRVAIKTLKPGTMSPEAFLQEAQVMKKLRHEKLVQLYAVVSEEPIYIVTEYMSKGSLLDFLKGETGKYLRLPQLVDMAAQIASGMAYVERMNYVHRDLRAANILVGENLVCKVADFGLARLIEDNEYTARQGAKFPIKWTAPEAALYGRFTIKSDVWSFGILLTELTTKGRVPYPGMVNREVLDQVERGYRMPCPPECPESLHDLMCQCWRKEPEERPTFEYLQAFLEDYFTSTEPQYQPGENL

[11] = target: T3, Phosphatidylinositol 4,5-bisphosphate 3-kinase catalytic subunit delta isoform (Homo sapiens) (UniProt O00329); assay: Selectivity interaction (Adapta Assay) EUB0001632a PIK3CD; settings: at 10 µM
T3 sequence (whole entry): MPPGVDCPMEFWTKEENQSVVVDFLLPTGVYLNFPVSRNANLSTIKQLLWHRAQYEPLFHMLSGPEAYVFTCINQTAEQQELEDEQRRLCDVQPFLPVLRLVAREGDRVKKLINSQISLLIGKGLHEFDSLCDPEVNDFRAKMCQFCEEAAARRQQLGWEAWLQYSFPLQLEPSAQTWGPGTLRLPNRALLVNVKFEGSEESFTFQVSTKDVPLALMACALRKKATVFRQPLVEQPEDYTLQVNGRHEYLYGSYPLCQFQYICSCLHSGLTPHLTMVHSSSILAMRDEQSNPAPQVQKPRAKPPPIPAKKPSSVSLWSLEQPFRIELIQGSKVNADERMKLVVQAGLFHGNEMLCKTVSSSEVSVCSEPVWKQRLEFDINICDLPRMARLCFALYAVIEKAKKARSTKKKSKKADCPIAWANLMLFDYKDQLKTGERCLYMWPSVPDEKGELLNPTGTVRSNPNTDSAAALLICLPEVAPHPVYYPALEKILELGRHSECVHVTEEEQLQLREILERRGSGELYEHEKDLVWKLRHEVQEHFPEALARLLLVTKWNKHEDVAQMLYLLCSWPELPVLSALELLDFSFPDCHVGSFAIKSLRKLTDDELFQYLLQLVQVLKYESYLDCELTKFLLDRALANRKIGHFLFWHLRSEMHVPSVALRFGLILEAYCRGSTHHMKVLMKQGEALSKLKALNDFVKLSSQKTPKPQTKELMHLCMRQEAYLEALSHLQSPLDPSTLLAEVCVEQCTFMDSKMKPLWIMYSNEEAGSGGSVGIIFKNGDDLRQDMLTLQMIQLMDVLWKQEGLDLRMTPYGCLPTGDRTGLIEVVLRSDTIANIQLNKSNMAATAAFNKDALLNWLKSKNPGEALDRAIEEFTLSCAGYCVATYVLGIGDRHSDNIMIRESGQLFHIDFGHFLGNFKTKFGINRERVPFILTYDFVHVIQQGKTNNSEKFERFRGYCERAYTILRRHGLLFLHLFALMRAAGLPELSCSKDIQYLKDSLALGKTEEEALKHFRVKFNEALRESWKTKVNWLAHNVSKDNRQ

- % of control [1]: 100%
SMILES: CCN(CC)CCCCNc1ncc2cc(-c3cc(OC)cc(OC)c3)c(NC(=O)NC(C)(C)C)nc2n1

- % of control (D(2) dopamine receptor): 92%
SMILES: CC(=O)c1cc(-c2ccccc2OCC2CC2)c2ncccn12

SMILES: CN(C)C/C=C/C(=O)Nc1ccc(C(=O)N2CCCC(Nc3ncc(Cl)c(-c4c[nH]c5ccccc45)n3)C2)cc1 (stereo unspecified)
- % of control [2]: 100%

SMILES: Nc1cnc(N2CCc3cc(S(=O)(=O)Nc4c(F)cc(Cl)cc4F)cc(N4CCCC4=O)c32)nc1 [TP-020n]
- % of control [3]: 80%
- % of control [4]: 100%

SMILES: CNC(=O)Nc1ccc(-c2nc(N3CC4CCC(C3)O4)c3cnn(C4CCC5(CC4)OCCO5)c3n2)cc1
- % of control [5]: 100%

SMILES: N#Cc1cccc(-c2c[nH]c3ncnc(N4CCOCC4)c23)c1
- % of inhibition [6]: 7%

SMILES: C=CC(=O)Nc1cc(-n2c(=O)ccc3cnc4ccc(-c5ccc(NS(C)(=O)=O)cc5)cc4c32)ccc1C
- % of control ([7]; at 1 µM): 75%
- % of control ([7]; at 10 µM): 100%
- % of control ([8]; at 1 µM): 86%
- % of control ([8]; at 10 µM): 97%
- % of control (SRSF protein kinase 1; at 1 µM): 78%
- % of control (SRSF protein kinase 1; at 10 µM): 100%

SMILES: COCC(=O)NC/C=C/c1ccc2ncnc(Nc3ccc(Oc4ccc(C)nc4)c(C)c3)c2c1 [CP-724714]
- % of control [9]: 100%

SMILES: Cc1cc([C@@H](C)Nc2ccccc2C(=O)O)c2nc(N3CCOCC3)cc(=O)n2c1 [AZD-6482]
- % of control [10]: 100%

- % of inhibition [11]: 66.6%
SMILES: Cn1cc(-n2cnc3c(NCc4nc5cc(Cl)c(Cl)cc5[nH]4)nc(N4CCOCC4)nc32)cn1
